# According to paper PMC7613998, “Development of selective inhibitors of phosphatidylinositol 3-kinase C2α” (Nature Chemical Biology, 2022):
# Biological target: T1, PI3KC2α (Homo sapiens, UniProt O00443)
# T1 construct: gene PIK3C2A; human PI3KC2α^ΔN (amino acids 376–1686)
# Assay: ADP-Glo lipid kinase assay with PI as substrate
# Format: biochemical
# T1 sequence (O00443 376-1686): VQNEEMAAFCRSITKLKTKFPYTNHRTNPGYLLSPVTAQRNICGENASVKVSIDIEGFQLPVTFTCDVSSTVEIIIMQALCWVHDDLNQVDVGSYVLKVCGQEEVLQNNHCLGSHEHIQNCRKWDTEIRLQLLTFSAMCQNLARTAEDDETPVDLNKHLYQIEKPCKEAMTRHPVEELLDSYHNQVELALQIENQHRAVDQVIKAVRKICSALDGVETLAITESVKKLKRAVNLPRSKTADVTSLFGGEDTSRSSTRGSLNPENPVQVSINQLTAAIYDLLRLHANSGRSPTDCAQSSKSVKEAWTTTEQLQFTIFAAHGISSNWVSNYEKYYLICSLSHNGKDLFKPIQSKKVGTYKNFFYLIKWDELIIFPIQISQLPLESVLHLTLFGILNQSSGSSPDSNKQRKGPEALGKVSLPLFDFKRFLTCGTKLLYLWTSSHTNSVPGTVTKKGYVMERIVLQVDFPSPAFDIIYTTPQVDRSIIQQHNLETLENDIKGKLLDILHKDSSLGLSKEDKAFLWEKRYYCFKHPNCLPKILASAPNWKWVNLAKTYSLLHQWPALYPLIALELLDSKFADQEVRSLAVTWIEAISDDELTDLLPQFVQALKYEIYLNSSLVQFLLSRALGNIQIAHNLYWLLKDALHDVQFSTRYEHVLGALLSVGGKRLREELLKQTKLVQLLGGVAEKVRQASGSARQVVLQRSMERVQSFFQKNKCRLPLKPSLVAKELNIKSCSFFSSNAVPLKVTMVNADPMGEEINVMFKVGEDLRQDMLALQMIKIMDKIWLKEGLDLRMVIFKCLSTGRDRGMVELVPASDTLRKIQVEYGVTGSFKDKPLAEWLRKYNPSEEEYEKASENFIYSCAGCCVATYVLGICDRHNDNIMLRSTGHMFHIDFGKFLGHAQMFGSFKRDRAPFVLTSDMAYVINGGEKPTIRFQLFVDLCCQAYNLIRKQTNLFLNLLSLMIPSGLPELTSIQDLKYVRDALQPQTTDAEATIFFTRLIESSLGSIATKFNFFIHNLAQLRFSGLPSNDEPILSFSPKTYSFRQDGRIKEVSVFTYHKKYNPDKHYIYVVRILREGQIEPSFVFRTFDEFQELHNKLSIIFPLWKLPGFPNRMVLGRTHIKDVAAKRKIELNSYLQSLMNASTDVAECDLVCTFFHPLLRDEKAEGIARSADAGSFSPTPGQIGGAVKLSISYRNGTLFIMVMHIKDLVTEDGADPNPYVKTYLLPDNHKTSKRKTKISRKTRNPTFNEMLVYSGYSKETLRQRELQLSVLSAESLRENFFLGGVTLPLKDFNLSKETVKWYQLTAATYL
structure (smiles),measurement,value
CC(C)CCn1c(SCC(=O)Nc2ccccc2C(F)(F)F)nc2nccnc2c1=O [compound 4],IC50,2.6 µM
